The values that follow are results of earlier work, collected in patent US20200338057A1, “Methods of Treating Prostate Cancer Based on Molecular Subtypes” (Janssen Pharmaceutica NV, priority 2019, published 2020).

Data set [1] has as its system noncastrate hormone-sensitive and bicalutamide-resistant human prostate cancer xenograft models. As to conditions: noncastrate hormone-sensitive and bicalutamide-resistant human prostate cancer xenografts. On the technique in general: Xenograft models place foreign cells or tissue in a host animal.

Turning to `CNC(=O)c1ccc(N2C(=S)N(c3cnc(C#N)c(C(F)(F)F)c3)C(=O)C23CCC3)cc1F` [Apalutamide, 4-[7-(6-cyano-5-trifluoromethylpyridin-3-yl)-8-oxo-6-thioxo-5,7-diazaspiro[3.4]oct-5-yl]-2-fluoro-N-methylbenzamide], the “Tumor response in xenograft models” value in data set [1] is on record as “partial or complete tumor regression”.

In the case of `CC(O)c1cc(C(=O)N[C@@H](C)Cn2ccc(-c3ccc(C#N)c(Cl)c3)n2)[nH]n1` (some centres unmarked) [Darolutamide, darolutamide], in the data set with AR, the AR binding affinity entry is “high affinity”.
